Values joined by “and” are separate entries in the source; they are usually repeats but may differ in a detail not shown here. Equal values may be shown once. “Also recorded” adds a separate entry of the source.
Experiments:
NIH3T3 cells [1] = experiment: Ferroptosis inducers (FINs)/ferroptocide, 7-AAD/annexin V flow cytometry; assay type: cell-based, murine; settings: alone (DMSO) or with Fer-1 1 µM, Nec-1s 30 µM, Nec-1f 30 µM
Experimental: (§1) To induce necroptosis in a human cell line, HT29 cells were stimulated at the indicated time points with 20 ng/ml human TNFα (Biolegend), 1 μM SMAC-mimetics (Birinapant, Chemietek), and 20 μM zVAD-fmk (Selleckchem, herein referred to as zVAD). For the induction of necroptosis in NIH3T3 cells, cells were incubated with 20 ng/ml TNF-α and 20 μM zVAD for indicated time points. […] Cells were seeded in six-well plates or petri dishes. […] After indicated time points, cells were collected and prepared for flow cytometry, immunoblotting, and/or LDH release assays.
(§2) Cells were harvested and the pellets were washed twice in PBS and stained with 5 μl of 7-AAD (BD Biosciences) and 5 μl of annexin-V-FITC (BD Biosciences) added to 100 μl annexin-V binding buffer (BD Biosciences). After 15 min, cells were recorded on the LSRII with the FACS Diva 6.1.1 software (BD Biosciences) and subsequently analyzed with the FlowJo v10 software (Tree Star).

RIPK1 = experiment: Western blot of pRIPK1 (S166) in TSZ-treated HT29 cells; assay type: cell-based, human; settings: Nec-1s 10 µM, Fer-1 1 µM, Nec-1f 10 µM
Experimental: as §1
(§3) Cells were lysed in ice-cold 10 mM Tris-HCl, pH 7.5, 50 mM NaCl, 1% Triton X-100, 30 mM sodium pyrophosphate, 50 mM NaF, 100 μM Na3VO4, 2 μM ZnCl2, and 1 mM phenylmethylsulfonyl fluoride (PMSF, modified Frackelton buffer) for 30 min on ice. Insoluble material was removed by centrifugation (14 000×g, 30 min, 4 °C). Protein concentration was determined using a commercial Bradford assay kit according to the manufacturer’s instructions (Thermo Fisher). Equal amounts of protein (typically 30 μg per lane) were resolved on a 4%−15% gradient SDS/PAGE gel and transferred to a PVDF membrane (BIO-RAD). Primary antibody incubation was performed for anti-pS166-RIPK1 (Cell Signaling, Cat# 65746, 1:1000 dilution), anti-pS358-MLKL, (Abcam, ab187091, 1:1000 dilution), anti-MLKL (Genetex, GTX107538, 1:1000 dilution) and anti-β-Actin (Cell Signaling, Cat# 3700S, 1:1000 dilution). Secondary antibodies (anti-mouse, HRP-linked antibody, Cell Signaling, Cat# 7076S; anti-rabbit, HRP-linked antibody, Cell Signaling, Cat# 7074S) were applied at concentrations of 1:5.000 (also see Supplementary Table 1 for details). Proteins were then visualized by enhanced chemiluminescence (ECL; Amersham Biosciences).

CD10-135 cells = experiment: FINs/ferroptocide, LDH release assay; assay type: cell-based, human; parameters: LDH release: unit not given here; settings: for LDH release: Nec-1f 30 µM
MLKL = experiment: Western blot of pMLKL (S358) in TSZ-treated HT29 cells; assay type: cell-based, human; settings: Nec-1s 10 µM, Fer-1 1 µM, Nec-1f 10 µM
Experimental: as §1, §3

NIH3T3 cells [2] = experiment: Simultaneous ferroptosis and necroptosis (RSL3 plus TZ), 7-AAD/annexin V flow cytometry; assay type: cell-based, murine; settings: for Rescue from necrosis induced by RSL3 plus TZ: NIH3T3, 16 h
Experimental: as §1, §2

NIH3T3 cells [3] = experiment: Ferroptosis inducers (FINs)/ferroptocide, 7-AAD/annexin V flow cytometry; assay type: cell-based, murine; settings: for cells in 7-AAD/annexin V flow cytometry (FigS9b): individual replicates
[4] = tested on: Mouse cortical tubule cells (MCT); experiment: FINs/ferroptocide, 7-AAD/annexin V flow cytometry; assay type: cell-based; settings: for double-negative events (7-AAD/annexin V): MCT, alone (DMSO) or with Fer-1 1 µM, Nec-1s 30 µM, Nec-1f 30 µM
Experimental: as §1, §2

HT1080 cells = experiment: CellTiter-Glo luminescent cell viability assay (ATP), dose-response; assay type: cell-based, human
Experimental: Cells were plated in an opaque-walled 96-well plate and treatment with ferroptosis inducers and/or ferroptosis inhibitors was initiated 24 h later. […] Here, the reaction agent was directly added to the wells, mixed on an orbital shaker for 2 min, and then incubated at room temperature for 10 min. The luminescence was detected using a Promega GloMax® instrument.

HT29 cells = experiment: TSZ-induced necroptosis, 7-AAD/annexin V flow cytometry; assay type: cell-based, human; settings: Nec-1f 10 µM; for Protection against TSZ-induced necroptosis (7-AAD/annexin V, words): HT29, TSZ
Experimental: as §1, §2

C57Bl/6 N mice = experiment: Bilateral kidney ischemia-reperfusion injury, severe model (38 min ischemia), survival; settings: single dose 2 mg/kg body weight before reperfusion
[5] = CD10-135, FIN56 alone (FIN) or with Fer-1, Nec-1s
[6] = CD10-135, FINO2 alone (FIN) or with Fer-1, Nec-1s
[7] = CD10-135, RSL3 alone (FIN) or with Fer-1, Nec-1s
[8] = CD10-135, ferroptocide alone (FIN) or with Fer-1, Nec-1s
[9] = Ferroptocide-induced cell death
[10] = HT1080 + Erastin, inhibitor concentration 0.01 (unit not given)
[11] = HT1080 + Erastin, inhibitor concentration 0.1 (unit not given)
[12] = HT1080 + Erastin, inhibitor concentration 1 (unit not given)
[13] = HT1080 + Erastin, inhibitor concentration 10 (unit not given)
[14] = HT1080 + Erastin, inhibitor concentration 30 (unit not given)
[15] = HT1080 + Ferroptocide, inhibitor concentration 0.01 (unit not given)
[16] = HT1080 + RSL3, inhibitor concentration 0.01 (unit not given)
[17] = HT1080 + RSL3, inhibitor concentration 0.1 (unit not given)
[18] = HT1080 + RSL3, inhibitor concentration 1 (unit not given)
[19] = HT1080 + RSL3, inhibitor concentration 10 (unit not given)

Row | Compound | double-negative events (7-AAD/annexin V) (NIH3T3 cells [1]; NIH3T3, 1.13 µM RSL3 6 h) | double-negative events (7-AAD/annexin V) (NIH3T3 cells [1]; NIH3T3, 10 µM FIN56 24 h) | Phosphorylation of RIPK1 at S166, western blot (RIPK1) | LDH release (CD10-135 cells; [5]) | LDH release (CD10-135 cells; [6]) | LDH release (CD10-135 cells; [7]) | LDH release (CD10-135 cells; [8]) | Effect on FIN-induced LDH release (CD10-135 cells; CD10-135 cells) | Phosphorylation of MLKL (pS358), western blot (MLKL) | Rescue from necrosis induced by RSL3 plus TZ (NIH3T3 cells [2]) | cells in 7-AAD/annexin V flow cytometry (FigS9b) (NIH3T3 cells [3]; Erastin-induced ferroptosis) | cells in 7-AAD/annexin V flow cytometry (FigS9b) (NIH3T3 cells [3]; FIN56-induced ferroptosis) | cells in 7-AAD/annexin V flow cytometry (FigS9b) (NIH3T3 cells [3]; FINO2-induced ferroptosis) | cells in 7-AAD/annexin V flow cytometry (FigS9b) (NIH3T3 cells [3]; [9]) | cells in 7-AAD/annexin V flow cytometry (FigS9b) (NIH3T3 cells [3]; RSL3-induced ferroptosis) | double-negative events (7-AAD/annexin V) ([4]; 1.13 µM RSL3 6 h) | double-negative events (7-AAD/annexin V) ([4]; 5 µM erastin 24 h) | double-negative events (7-AAD/annexin V) ([4]; 10 µM FIN56 24 h) | ATP luminescence (CellTiterGlo) (HT1080 cells; [10]) [%] | ATP luminescence (CellTiterGlo) (HT1080 cells; [11]) [%] | other results
1 | CN1C(=O)C(Cc2c[nH]c3c(Cl)cccc23)NC1=S (stereo not shown) [Nec-1f] | 88.9% and 61.8% and 72.9% and 86.1% and 70.3% and 57.8% and 80.3% | 88.1% and 87.8% and 92.6% | prevented phosphorylation at S166 in RIPK1 | 25.01 and 21.5704 and 29.6875 | 27.07 and 34.1078 and 34.3349 | 36.35 and 26.8291 | 89.05 and 90.3713 | reversed | prevented phosphorylation | Nec-1f does; also recorded: maintained cell viability | 83.1% and 77.0% and 78.0% and 47.0% | 88.0% and 64.0% | 75.0% and 57.0% | 80.0% and 8.0% | 80.0% and 84.0% | 93.7% and 87.8% and 51.4% | 79.8% and 85.4% and 81.9% and 88.8% | 93.7% and 87.9% and 91.7% | 6.81 | 7.52 | LDH release (CD10-135 cells; CD10-135, erastin alone (FIN) or with Fer-1, Nec-1s): 25.13 and 17.5 and 32.5; 7-AAD/annexin V flow cytometry, source data of bar graph Fig3c (NIH3T3 cells [2]; NIH3T3, RSL3 (1.13 µM) + TZ 16 h with inhibitor): 75.7% and 76% and 68%; Effect on FINO2-induced death ([4]; MCT cells): failed to prevent; Effect on RSL3-induced annexin V / 7-AAD positivity ([4]; MCT cells): inhibited; ATP luminescence (CellTiterGlo) (HT1080 cells; [12]): 8.325%; ATP luminescence (CellTiterGlo) (HT1080 cells; [13]): 21.5066%; ATP luminescence (CellTiterGlo) (HT1080 cells; [14]): 111.285%; ATP luminescence (CellTiterGlo) (HT1080 cells; [15]): 1.591% and 1.035%; ATP luminescence (CellTiterGlo) (HT1080 cells; HT1080 + Ferroptocide, inhibitor concentration 0.1 (unit not given)): 1.25% and 2.131%; ATP luminescence (CellTiterGlo) (HT1080 cells; HT1080 + Ferroptocide, inhibitor concentration 1 (unit not given)): 5.941% and 7.943%; ATP luminescence (CellTiterGlo) (HT1080 cells; HT1080 + Ferroptocide, inhibitor concentration 10 (unit not given)): 11.997% and 7.702%; ATP luminescence (CellTiterGlo) (HT1080 cells; [16]): 48.1449% and 58.3128%; ATP luminescence (CellTiterGlo) (HT1080 cells; [17]): 48.8384% and 72.7198%; ATP luminescence (CellTiterGlo) (HT1080 cells; [18]): 51.482% and 85.4435%; ATP luminescence (CellTiterGlo) (HT1080 cells; [19]): 49.7032% and 98.9558%; ATP luminescence (CellTiterGlo) (HT1080 cells; HT1080 + RSL3, inhibitor concentration 30 (unit not given)): 46.9784% and 93.7693%; 7-AAD/annexin V flow cytometry, source data of bar graph Fig2e (HT29 cells; HT29, TSZ (TNFα 20 ng/ml, birinapant 1 µM, zVAD-fmk 20 µM) 16 h): 80.1% and 85.8% and 92.9% and 83.9% and 82.2% and 61.2% and 88.8% and 88.1%; Protection against TSZ-induced necroptosis (7-AAD/annexin V, words) (HT29 cells): maintained double negativity; Survival after severe renal IRI vs vehicle (Kaplan-Meier, words) (C57Bl/6 N mice): significantly higher
2 | CCOC(=O)c1ccc(NC2CCCCC2)c(N)c1 [Fer-1, ferrostatin-1] | 90.9% and 88.3% and 95.7% and 97.7% and 79% | 94.7% and 91.5% and 96.4% | RIPK1 S166 phorphorylation was increased | 8.38 and 8.509 and 10.9286 | 8.33 and 7.093 and 7.5109 | 6.44 and 3.43 | 30.26 and 29.1563 | reversed | did not prevent MLKL-phosphorylation | fail to rescue | 95.0% and 94.0% and 92.0% | 94.1% and 94.0% | 90.0% and 90.2% | 93.0% and 79.0% | 95.0% and 92.0% | 96.6% and 93.5% and 69% | 79.5% and 84.2% and 82.8% and 86.9% | 89.5% and 93.6% and 90.5% | 8.302 | 100.351 | double-negative events (7-AAD/annexin V) (NIH3T3 cells [1]; NIH3T3, 5 µM erastin 24 h): 93.3% and 78.4% and 95.1% and 95.2%; double-negative events (7-AAD/annexin V) (NIH3T3 cells [1]; NIH3T3, 10 µM FINO2 24 h): 79% and 79.9% and 82.9% and 91%; Effect on the phenotype induced by ferroptocide (CD10-135 cells; CD10-135 cells): reversed the phenotype; double-negative events (7-AAD/annexin V) (NIH3T3 cells [3]; NIH3T3, 10 µM ferroptocide 24 h, alone (DMSO) or with Fer-1 1 µM, Nec-1s 30 µM, Nec-1f 30 µM): 76.5% and 92.2% and 95.9% and 92.6%; Effect on RSL3- and FINO2-induced ferroptosis ([4]; MCT cells): reversed; double-negative events (7-AAD/annexin V) ([4]; 10 µM FINO2 24 h): 96% and 77.1% and 92.8% and 95.9% and 89.7%; double-negative events (7-AAD/annexin V) ([4]; 10 µM ferroptocide 24 h): 86.2% and 85.5% and 72.2% and 89.6% and 67.8% and 73.5%; ATP luminescence (CellTiterGlo) (HT1080 cells; [12]): 97.0601%; ATP luminescence (CellTiterGlo) (HT1080 cells; [13]): 92.1314%; ATP luminescence (CellTiterGlo) (HT1080 cells; [14]): 88.0064%; ATP luminescence (CellTiterGlo) (HT1080 cells; [15]): 2.0385% and 1.258%; ATP luminescence (CellTiterGlo) (HT1080 cells; [16]): 46.842% and 51.9737%; ATP luminescence (CellTiterGlo) (HT1080 cells; [17]): 61.3859% and 117.078%; ATP luminescence (CellTiterGlo) (HT1080 cells; [18]): 60.0511% and 109.723%; ATP luminescence (CellTiterGlo) (HT1080 cells; [19]): 58.2722% and 113.348%; Protection against TSZ-induced necroptosis (7-AAD/annexin V, words) (HT29 cells): did not provide protection against necroptosis; Survival after severe renal IRI vs vehicle (Kaplan-Meier, words) (C57Bl/6 N mice): not statistically significant

From article PMC8292346, “Dysfunction of the key ferroptosis-surveilling systems hypersensitizes mice to tubular necrosis during acute kidney injury” (Nature Communications, 2021)
